Measurements: PMC12246422 (Nature Communications, 2025)

What was measured:
[1] = cited from earlier work
A549-ACE2 cells [2] = format: cell-based; conditions: 5 μM, 24 hours
SARS-CoV-2 = assay: Time-of-addition experiment in Calu-3 cells, plaque assay; format: cell-based
[3] = tested on: SARS-CoV-2 subgenomic replicon; format: cell-based; conditions: Vero E6-TMPRSS2 cells, 24 h
A549-ACE2 cells [4] = format: cell-based

Structure (SMILES)	pharmacokinetic profile [1]	morphology of A549-ACE2 cells expressing 2xFYVE PI3P marker (A549-ACE2 cells [2])	time-of-addition profile (SARS-CoV-2)	viral RNA replication, subgenomic replicon [3]	autolysosome number and autolysosome-to-autophagosome ratio relative to DMSO (A549-ACE2 cells [4])
Cc1cccc(/C=N/Nc2cc(N3CCOCC3)nc(OCCc3ccccn3)n2)c1 [Apilimod]	suboptimal pharmacokinetic profile	cytosolic vacuolation and swelling of membrane structures	suppressed SARS-CoV-2 replication when added during the first two hpi, but not at later time points	dose-dependently increased viral RNA replication	
CCN(CC)CCCC(C)Nc1ccnc2cc(Cl)ccc12 (centres unmarked) [chloroquine]					moderately reduced
